Measurements taken from patent US20100028395A1, “COMPOSITIONS CONTAINING N-ACETYLGLUCOSAMINE FOR USE IN DERMO-COSMETOLOGY AND AESTHETIC MEDICINE” (ROTTAPHARM S.P.A., priority 2007, published 2010).

What was measured:
[1] = tested on: Human fibroblasts, Detroit 551 ATCC CCL III; experiment: Stimulation of HA synthesis in human fibroblast cultures (EIA HA assay); assay type: cell-based; conditions: for HA(ng/well) (Diff. from baseline) / HA (%) (Diff. from baseline): 48 h; for HA (%) from NAG (consistent doses): see Table 2
Description: The test has been conducted in two stages, i.e.: • stage A: in which the stimulation of HA expression by COMBI has been evaluated while maintaining the concentration constant and varying the reciprocal quantities of its components. The concentration used has been selected so as to enable comparison with the results derived from stage B; • stage B: in which the effect of CA on HA expression has been evaluated by varying its concentration and in comparison with doses consistent with its components. […] Human fibroblasts have been grown in suitable growth medium (Eagle's minimal essential medium) supplemented with 10% foetal calf serum (FCS), 1 mM sodium pyruvate, 2 mM glutamine, non-essential aminoacids and 50 μg/ml glutamycin. […] After 48 hours, the supernatant has been removed and used for the determination of the parameters of interest. The test has been conducted in duplicate and untreated cell cultures have been used as controls. HA has been assayed (dosed) by means of an immuno-enzymatic test using a commercially available kit (EIA, Corgenix). De novo HA synthesis has been evaluated in the culture medium following treatment with the test substances, according to the protocol provided with the test, and against the calibration curve obtained using the HA standard contained in the kit. […] • evaluation of the effects of the substances tested, at the various concentrations, on fibroblast cultures has been expressed as the absolute and percent increase or decrease of the HA expression, with respect to the corresponding control culture, after 48 hours of incubation. The percentage difference increase or decrease of the effects exerted by CA and NAG, at corresponding concentrations, have then been calculated, with evaluation of their potential significance by means of the Student's “t” test.

[2] = tested on: MatTek Human Skin EpiDemFT skin model; conditions: addition of NAG to in vitro skin model; cited from earlier work
[3] = tested on: Human fibroblasts, Detroit 551 ATCC CCL III; experiment: Stimulation of protein synthesis in human fibroblast cultures (Lowry method); assay type: cell-based
Experimental: The following have been used: • Human fibroblasts, Detroit 551 ATCC CCL III from LGC Promochem (Milan, Italy); • Human keratinocyte primary culture: HEKA, Cascade Biologics, cat. 005-5C. Test substances and concentrations
The substances and concentrations tested are those reported below (on both fibroblasts and keratinocytes): • CA: 0.13, 0.66, 1.32, and 2.64 mg/ml • NAG: 0.1, 0.5, 1.0, and 2.0 mg/ml
The method is identical to that already described for collagen and elastin with the difference that, following the addition of the test substances into the culture medium, the medium has been substituted daily for three days. Each sample has been tested in duplicate and the experiments have been repeated twice. The parameter of interest, i.e. protein synthesis, has been evaluated at 24, 48 and 72 hours on separate plates. Untreated cell cultures have been used as controls.
Protein has been assayed using the Lowry method [Lowry et al. 1951] consisting of a Biuret reduction reaction envisaging the use of Folin-Ciocalteau reagent as chromophore, with a yellow to blue colour change and spectrophotometric measurement at 750 nm [Creighton et al. 1984; Sengupta et al. 1993].
The protein content of the cultures in question has been obtained from comparison of their optical densities with a titration curve made using albumin as a protein standard.
Evaluation of the effect of the substances tested, at the various concentrations and times, on cultures of both fibroblasts and keratinocytes has been expressed in both absolute terms (expressed protein production in mg/ml) and as percentage increase or decrease with respect to control cultures.
The percentage difference increase or decrease of the effects exerted by CA and NAG, over various days and at the corresponding concentrations, have then been calculated, with evaluation of their potential statistical significance by means of the test Student “t” test.

[4] = tested on: Human fibroblasts, Detroit 551 ATCC CCL III; experiment: Stimulation of collagen synthesis in human fibroblast cultures (Sircol assay); assay type: cell-based; conditions: 24 h
Description: The scope of the test has been the evaluation and the comparison of the potential stimulation exerted by the test substances on the expression of collagen and elastin in “in vitro” cultures of skin-derived cells, such as fibroblasts. The test in question, even though conducted “in vitro”, can be considered to be predictive of the effects of use of the same substances “in vivo”. […] The samples have been dissolved directly in the culture medium. Each sample has been tested in duplicate and the experiments have been repeated twice. The parameters of interest have been determined after 24 hours on separate plates. Untreated cell cultures have been used as controls. A commercially available kit (Sircol™, biodye science) which uses the capacity of the stain Sirius Red to interact with the basic side chains of the aminoacids present in collagen itself, has been used for collagen assays. De novo collagen synthesis has been evaluated in the culture medium following treatment with the test substances, following the protocol provided with the kit, and by using the calibration curve obtained employing the collagen standard contained in turn in the kit. Evaluation of the effects of the substances tested, at the various concentrations, on fibroblast cultures, has been expressed as the absolute and percent increase or decrease of collagen and elastin expression, with respect to the corresponding control culture, after 24 hours of incubation. The percentage difference increase or decrease of the effects exerted by CA and NAG, at corresponding concentrations, have then been calculated, with consequent evaluation of their potential statistical significance by means of the test Student “t” test.

CC(=O)N[C@@H](C=O)[C@@H](O)[C@H](O)[C@H](O)CO [NAG, N-acetyl-2-amino-2 deoxyglucose]
HA(ng/well) (Diff. from baseline) ([1]; NAG 0.50 mg/ml): +54 ng/well | HA (%) (Diff. from baseline) ([1]; NAG 1.00 mg/ml): +58.98% | HA(ng/well) (Diff. from baseline) ([1]; NAG 1.00 mg/ml): +289 ng/well | HA (%) (Diff. from baseline) ([1]; NAG 1.50 mg/ml): +76.12% | HA(ng/well) (Diff. from baseline) ([1]; NAG 1.50 mg/ml): +373 ng/well | HA (%) (Diff. from baseline) ([1]; NAG 2.00 mg/ml): +78.78% | HA(ng/well) (Diff. from baseline) ([1]; NAG 2.00 mg/ml): +386 ng/well | HA (%) (Diff. from baseline) ([1]; NAG 2.50 mg/ml): +96.73% | HA(ng/well) (Diff. from baseline) ([1]; NAG 2.50 mg/ml): +474 ng/well | HA (%) from NAG (consistent doses) ([1]; NAG alone at 0.93 mg/ml (content of 1:3.5 combination)): ≈59% | HA (%) from NAG (consistent doses) ([1]; NAG alone at 1.71 mg/ml (content of 1:0.5 combination)): +76.12-+78.8% | increase of HA [2]: very high, significant and dose dependent increase | increase of pro-collagen 1 [2]: very high, significant and dose dependent increase | Expr. prot. from NAG % incr. over baseline ([3]; NAG 0.10 mg/ml, 24 hours): −14.6% | Expr. prot. from NAG (mg/ml) - Mean +/− st. dev. ([3]; NAG 0.10 mg/ml, 24 hours): 0.70 ± 0.11 mg/mL | Expr. prot. from NAG % incr. over baseline ([3]; NAG 0.10 mg/ml, 48 hours): −7.8% | Expr. prot. from NAG (mg/ml) - Mean +/− st. dev. ([3]; NAG 0.10 mg/ml, 48 hours): 0.95 ± 0.08 mg/mL | Expr. prot. from NAG % incr. over baseline ([3]; NAG 0.10 mg/ml, 72 hours): −6.4% | Expr. prot. from NAG (mg/ml) - Mean +/− st. dev. ([3]; NAG 0.10 mg/ml, 72 hours): 1.03 ± 0.18 mg/mL | Expr. prot. from NAG % incr. over baseline ([3]; NAG 0.50 mg/ml, 24 hours): +31.7% | Expr. prot. from NAG (mg/ml) - Mean +/− st. dev. ([3]; NAG 0.50 mg/ml, 24 hours): 1.08 ± 0.29 mg/mL | Expr. prot. from NAG % incr. over baseline ([3]; NAG 0.50 mg/ml, 48 hours): −9.7% | Expr. prot. from NAG (mg/ml) - Mean +/− st. dev. ([3]; NAG 0.50 mg/ml, 48 hours): 0.93 ± 0.08 mg/mL | Expr. prot. from NAG % incr. over baseline ([3]; NAG 0.50 mg/ml, 72 hours): +3.6% | Expr. prot. from NAG (mg/ml) - Mean +/− st. dev. ([3]; NAG 0.50 mg/ml, 72 hours): 1.14 ± 0.16 mg/mL | Expr. prot. from NAG % incr. over baseline ([3]; NAG 1.00 mg/ml, 24 hours): +35.4% | Expr. prot. from NAG (mg/ml) - Mean +/− st. dev. ([3]; NAG 1.00 mg/ml, 24 hours): 1.11 ± 0.22 mg/mL | Expr. prot. from NAG % incr. over baseline ([3]; NAG 1.00 mg/ml, 48 hours): −21.4% | Expr. prot. from NAG (mg/ml) - Mean +/− st. dev. ([3]; NAG 1.00 mg/ml, 48 hours): 0.81 ± 0.11 mg/mL | Expr. prot. from NAG % incr. over baseline ([3]; NAG 1.00 mg/ml, 72 hours): −5.5% | Expr. prot. from NAG (mg/ml) - Mean +/− st. dev. ([3]; NAG 1.00 mg/ml, 72 hours): 1.04 ± 0.20 mg/mL | Expr. prot. from NAG (mg/ml) - Mean +/− st. dev. ([3]; NAG 2.00 mg/ml, 24 hours): 1.24 ± 0.17 mg/mL | Expr. prot. from NAG % incr. over baseline ([3]; NAG 2.00 mg/ml, 48 hours): +6.8% | Expr. prot. from NAG (mg/ml) - Mean +/− st. dev. ([3]; NAG 2.00 mg/ml, 48 hours): 1.10 ± 0.20 mg/mL | Expr. prot. from NAG % incr. over baseline ([3]; NAG 2.00 mg/ml, 72 hours): +0.91% | Expr. prot. from NAG (mg/ml) - Mean +/− st. dev. ([3]; NAG 2.00 mg/ml, 72 hours): 1.11 ± 0.19 mg/mL | Collagen (%) (Diff. from baseline) ([4]; NAG 0.50 mg/ml): +1.64% | Collagen(μg/ml) (Diff. from baseline) ([4]; NAG 0.50 mg/ml): +0.07 μg/ml | Collagen (%) (Diff. from baseline) ([4]; NAG 1.00 mg/ml): +30.28% | Collagen(μg/ml) (Diff. from baseline) ([4]; NAG 1.00 mg/ml): +1.29 μg/ml | Collagen (%) (Diff. from baseline) ([4]; NAG 1.50 mg/ml): +36.15% | Collagen(μg/ml) (Diff. from baseline) ([4]; NAG 1.50 mg/ml): +1.54 μg/ml | Collagen (%) (Diff. from baseline) ([4]; NAG 2.00 mg/ml): +32.86% | Collagen(μg/ml) (Diff. from baseline) ([4]; NAG 2.00 mg/ml): +1.33 μg/ml | Collagen (%) (Diff. from baseline) ([4]; NAG 2.50 mg/ml): +47.65% | Collagen(μg/ml) (Diff. from baseline) ([4]; NAG 2.50 mg/ml): +2.03 μg/ml
